In patent publication US5225436A, “Aryl substituted naphthalene derivatives” (Schering Corporation, priority 1991, dated 1993):
Structures can show the parent of a compound that is named as a salt. Where two headings read alike, the source gives them in different places.

Legend:
5-lipoxygenase = molecular target: T1, 5-lipoxygenase (Mus musculus, UniProt P48999); experiment: 5-Lipoxygenase assay (murine mast cell clone MC-9); format: cell-based; conditions: MC9, 5 min, MC-9 cell
T1 construct: The IL-3-dependent murine mast cell clone, MC-9, was used to test the effects; endogenous in cells; host or cells: MC-9 (IL-3-dependent murine mast cell clone)
T1 sequence (P48999 1-674): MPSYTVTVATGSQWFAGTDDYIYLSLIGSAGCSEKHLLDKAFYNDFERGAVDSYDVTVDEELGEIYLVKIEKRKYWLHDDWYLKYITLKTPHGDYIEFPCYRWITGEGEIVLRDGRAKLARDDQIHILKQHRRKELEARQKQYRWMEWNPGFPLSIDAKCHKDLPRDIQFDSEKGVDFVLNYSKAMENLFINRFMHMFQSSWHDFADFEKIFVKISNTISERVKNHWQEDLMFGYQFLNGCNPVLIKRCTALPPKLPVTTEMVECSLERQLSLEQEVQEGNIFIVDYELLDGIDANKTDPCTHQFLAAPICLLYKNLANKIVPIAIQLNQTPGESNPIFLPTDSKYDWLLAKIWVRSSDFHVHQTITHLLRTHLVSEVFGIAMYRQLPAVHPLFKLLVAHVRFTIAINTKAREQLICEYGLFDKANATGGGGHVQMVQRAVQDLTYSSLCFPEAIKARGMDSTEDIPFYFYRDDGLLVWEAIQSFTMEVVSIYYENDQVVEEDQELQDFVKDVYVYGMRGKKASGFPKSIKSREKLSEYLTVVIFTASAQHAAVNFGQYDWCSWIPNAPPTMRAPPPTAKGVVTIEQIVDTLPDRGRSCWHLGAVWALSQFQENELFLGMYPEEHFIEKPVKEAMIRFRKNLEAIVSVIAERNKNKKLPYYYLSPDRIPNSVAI
Experimental: The IL-3-dependent murine mast cell clone, MC-9, was used to test the effects of representative compounds of the invention on lipoxygenase activity. The MC-9 cell line was grown in suspension culture (0.4 to 1.2×10^6 cells/ml) in RPMI 1640 medium (Gibco) with 10% fetal bovine serum (Hyclone) and 2-5% conconavalin-A conditioned supernatant (Musch et. al., (1985) Prostagandins 29, 405-4307. Cells were harvested, washed twice by centrifugation, and resuspended in a Ca^++ -free HEPES buffer (25 mM HEPES, 125 mM NaCl, 2.5 mM KCl 0.7 mM MgCl2, 0.5 mM EGTA and 10 mM glucose at pH 7.4).
MC-9 cells (0.39 ml at 7.5×10^6 cells/ml) were preincubated with dimethylsulfoxide (DMSO) vehicle with or without test compound (1 ul) for 4 minutes then incubated for 5 minutes with [^14 C] arachidonic acid (Amersham, 59 Ci/mole) at a 9 uM final concentration, and A23187 (Calbiochem) at a 1 uM final concentration was added in 10 ul of water:ethanol (9:1). The reaction was stopped by addition of methanol (0.4 ml), and cellular debris was removed by centrifugation. Aliquots (250 ul) of the incubations were run on a Waters two pump HPLC system fitted with a Waters C18, 10 u 8×100 mm u-Bondapak radial compression column and C18 "Guard Pak". The column was initially eluted at 3 ml/min with water:methanol:acetic acid (67:33:0.08) containing 1 mM EDTA adjusted to pH 6.0 with ammonium hydroxide (Pump A). At 4 minutes, a linear gradient to reach 100% methanol (Pump B) at 9 minutes was established. Between 13 and 14 minutes, methanol was exchanged for the initial eluting solvent and by 19 minutes the column had been reequilibrated for the next sample. The effluent was analyzed by a continuous flow radioactivity monitor (model ROMONA-D) interfaced with a Hewlett Packard Lab Automation System for quantitation of radioactive products. These were predominantly leukotriene C4 (LTC4) which eluted at 6 minutes, and 5-hydroxyeicosatetraenoic acid (5-HETE) which eluted at 11 minutes (Musch et. al., supra).

[1] = tested on: SRS-A / leukotriene release from antigen-challenged, sensitized guinea pig lung; experiment: Inhibition of SRS-A (leukotriene) release from antigen-challenged, sensitized guinea pig lung; format: cell-based; conditions: Cavia porcellus
Method in brief: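 Chopped sensitized guinea pig lung fragments (~400 mg) preincubated with or without compound 12 min at 37° C in Tyrode's with 10 mM cysteine, then challenged with 20 μg/ml ovalbumin (final) for 15 min. Ethanol-extracted supernatant leukotrienes measured by [3H]LTC4 RIA (55% LTD4 cross-reactivity); % inhibition versus the same lung without compound.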

[2] = tested on: arachidonic acid induced mouse ear inflammation; experiment: Arachidonic acid mouse ear test; format: in vivo, mouse (Charles River, female, CD, (SD) BR); conditions: 1 mg/ear, topical, 30 minutes prior to AA challenge
Experimental: Charles River, female, CD, (SD) BR mice, 6 weeks old, are caged 8/group and allowed to acclimate 1-3 weeks prior to use.
Arachidonic acid (AA) is dissolved in reagent grade acetone (2 mg/.01 ml) and stored at -20° C. for a maximum of 1 week prior to use. Inflammatory reactions are induced by applying […] of AA to both surfaces of one ear ([…] total).
Test drugs are dissolved in either reagent grade acetone or aqueous ethanol (only if insoluble in acetone) at the same doses selected by Opas et al., Fed. Proc. 43, Abstract 2983, p. 1927 (1984) and Young et al., J. Invest. Dermatol. 82, pp. 367-371 (1984). These doses are employed to ensure maximum responses and to overcome any difference in topical absorption which could occur with any drug applied in an aqueous ethanol vehicle. The test drug is applied 30 minutes prior to challenge with AA.
The severity of the inflammation is measured as a function of increased ear weight. A 6 mm punch biopsy is removed 1 hour after AA challenge and weighed to the nearest 0.1 mg. Mean ± standard error and all possible comparisons are made via Duncan's Multiple Range Statistic.

[3] = tested on: anaphylactic bronchospasm (antigen-induced SRS-A mediated bronchoconstriction); experiment: Inhibition of anaphylactic bronchospasm in sensitized guinea pigs; format: in vivo, guinea pig; conditions: Cavia porcellus, iv, 0.25 h, Dose 10 mpk, read-out: % Inhibition of anaphylactic bronchospasm
Experimental: The anti-allergy method of this invention is identified by tests which measure a compound's inhibition of anaphylactic bronchospams-in sensitized guinea pigs having antigen-induced SRS-A mediated bronchoconstriction. Allergic bronchospams was measured in actively sensitized guinea pigs by a modification of the procedure of Konzett and Rossler, Arch. Exptl. Pathol. Pharmakol., 194, pp. 71-74 (1940). Male Hartley guinea pigs were sensitized with 5 mg ovalbumin injected ip and 5 mg injected sc in 1 ml saline on day 1 and 5 mg ovalbumin injected ip on day 4. The sensitized animals were used 3-4 weeks later. To measure anaphylactic bronchospasm, sensitized guinea pigs were fasted overnight and the following morning were anesthetized with 0.9 ml/kp ip dialurethane. The trachea and jugular vein were cannulated and the animals were ventilated by a Harvard rodent respirator. A side arm to the tracheal cannula was connected to a Harvard pressure transducer to obtain a continuous measure of intratracheal pressure. An increase in intratracheal pressure was taken as a measure of bronchoconstriction. Each guinea pig was injected iv with 1 mg/kg propranolol, 5 mg/kg indomethacin and 2 mg/kg mepyramine given together in a volume of […]. Fifteen minutes later, the animals were challenged with antigen (0.5 percent ovalbumin) delivered as an aerosol generated from a DeVilbiss Model 65 ultrasonic nebulizer and delivered through the tracheal cannula for 30 seconds. Bronchoconstriction was measured as the peak increase in intratracheal pressure occurring within 15 minutes after antigen challenge.

Row | SMILES | inhibition at 5 µM (5-lipoxygenase; read-out: % Inhibition 5-HETE) [%] | inhibition at 5 µM (5-lipoxygenase; read-out: % Inhibition LTC4) [%] | inhibition at 50 µM (5-lipoxygenase; read-out: % Inhibition 5-HETE) [%] | inhibition at 50 µM (5-lipoxygenase; read-out: % Inhibition LTC4) [%] | inhibition at 1 µM (5-lipoxygenase; read-out: % Inhibition 5-HETE) [%] | inhibition at 1 µM (5-lipoxygenase; read-out: % Inhibition LTC4) [%] | inhibition at 2 µM (5-lipoxygenase; read-out: % Inhibition 5-HETE) [%] | inhibition at 2 µM (5-lipoxygenase; read-out: % Inhibition LTC4) [%] | inhibition at 50 µM [1] [%] | inhibition (increased ear weight) [2] [%] | inhibition in vivo at 10 mg/kg [3] [%] | inhibition at 10 µM ([1]; Dose 10 μm) [%] | inhibition (increased ear weight) ([2]; listed as 3-(3,4-dihydroxyphenyl)-6,8-dihydroxy-4,4-dimethyl-1(4H)-naphthalenone) [%]
1 | COc1cc(O)c2c(c1)C(C)(C)C(c1ccc(O)c(O)c1)=CC2=O [3-(3,4-dihydroxyphenyl)-8-hydroxy-6-methoxy-4,4-dimethyl-1(4H)-naphthalenone] | 60 | – | – | – | – | – | – | – | 43 | 65 | – | – | –
2 | CC1(C)C(c2ccc(O)c(O)c2)=C(O)C(=O)c2c(O)cc(O)cc21 [3-(3,4-dihydroxyphenyl)-2,6,8-trihydroxy-4,4-dimethyl-1(4H)-naphthalenone] | 43 | – | 95 | – | – | – | – | – | 81 | 68 | – | – | –
3 | CC1(C)C(c2ccc(O)c(O)c2)=CC(=O)c2c(O)cc(O)cc21 [3-(3,4-dihydroxyphenyl)-6,8-dihydroxy-4,4-dimethyl-1(4H)-naphthalenone] | 76 | – | – | – | – | – | 52 | 33 | 77 | – | 17 | – | 60
4 | CC1(C)C(c2ccc(O)c(O)c2)=CC(=O)c2c(O)cc(O)cc21 [trisodium salt of 3(3 4-dihydroxy-phenyl)-6,8-dihydroxy-4,4-dimethyl-1(4H)-naphthalenone] | – | – | – | – | – | – | – | – | – | 90 | – | – | –
5 | CC(=O)Oc1cc(OC(C)=O)c2c(c1)C(C)(C)C(c1ccc(OC(C)=O)c(OC(C)=O)c1)=CC2=O [3-(3,4-diacetyloxyphenyl)-6,8-diacetyloxy-4,4-dimethyl-1(4H)-naphthalenone] | 53 | 43 | – | – | – | – | – | – | 48 | – | 7 | – | –

The next lines start with results.

Row | inhibition at 5 µM (5-lipoxygenase; read-out: % Inhibition 5-HETE) [%] | inhibition at 5 µM (5-lipoxygenase; read-out: % Inhibition LTC4) [%] | inhibition at 50 µM (5-lipoxygenase; read-out: % Inhibition 5-HETE) [%] | inhibition at 50 µM (5-lipoxygenase; read-out: % Inhibition LTC4) [%] | inhibition at 1 µM (5-lipoxygenase; read-out: % Inhibition 5-HETE) [%] | inhibition at 1 µM (5-lipoxygenase; read-out: % Inhibition LTC4) [%] | inhibition at 2 µM (5-lipoxygenase; read-out: % Inhibition 5-HETE) [%] | inhibition at 2 µM (5-lipoxygenase; read-out: % Inhibition LTC4) [%] | SMILES | inhibition at 50 µM [1] [%] | inhibition (increased ear weight) [2] [%] | inhibition in vivo at 10 mg/kg [3] [%] | inhibition at 10 µM ([1]; Dose 10 μm) [%] | inhibition (increased ear weight) ([2]; listed as 3-(3,4-dihydroxyphenyl)-6,8-dihydroxy-4,4-dimethyl-1(4H)-naphthalenone) [%]
6 | 29 | 36 | 100 | 99 | – | – | – | – | COc1cc(OC)c2c(c1)C(C)(C)C(c1ccc(OC)c(OC)c1)CC2=O (centres unmarked) [3-(3,4-dimethoxyphenyl)-6,8-dimethoxy-4,4-dimethyl-3 4-dihydro-1(2H)-naphthalenone] | 62 | 50 | 0 | – | –
7 | 100 | 65 | – | – | 28 | 26 | – | – | COc1cc(OC)c2c(c1)C(C)(C)C(c1ccc(OC)c(OC)c1)CC2=NO (centres unmarked) | 75 | – | 50 | 35 | –
8 | 9 | 17 | 95 | 100 | – | – | – | – | COc1cc(OC)c2c(c1)C(C)(C)C(c1ccc(OC)c(OC)c1)=CC2=O | 55 | – | 36 | – | –
